{"source": "paper PMC5011961", "about": "“In vitro antimicrobial activities of animal-used quinoxaline 1,4-di-N-oxides against mycobacteria, mycoplasma and fungi” (BMC Veterinary Research, 2016)", "key": {"[1]": {"tested_on": "PRRSV", "assay": "Antiviral assay (CPE/MTT; adsorption inhibition, infection inhibition, virucidal)", "assay_type": "cell-based, porcine reproductive and respiratory syndrome virus", "design": "key to IC50: “--”represent not detected owing to the low inhibition ratio", "conditions": "for IC50: PRRSV, mean±SD of four experiments"}, "[2]": {"tested_on": "PPV", "assay": "Antiviral assay (CPE/MTT; adsorption inhibition, infection inhibition, virucidal)", "assay_type": "cell-based, porcine parvovirus", "design": "key to IC50: “--” represent not detected owing to the low inhibition ratio", "conditions": "for IC50: PPV, mean±SD of four experiments"}, "[3]": {"tested_on": "IBDV", "assay": "Antiviral assay (CPE/MTT; adsorption inhibition, infection inhibition, virucidal)", "assay_type": "cell-based, infectious bursal disease virus", "design": "key to IC50: “--” represent not detected owing to the low inhibition ratio", "conditions": "for IC50: IBDV, mean±SD of four experiments"}, "[4]": {"tested_on": "PK-15 cells", "assay": "Cytotoxicity assay (MTT)", "conditions": "for TC50: PK-15, 72 h, MTT, mean ± SD, n = 4; for MNTC: PK-15, maximum non-cytotoxic concentration (90 % cell viability)"}, "[5]": {"tested_on": "Marc-145 cells", "assay": "Cytotoxicity assay (MTT)", "conditions": "for TC50: Marc-145, 72 h, MTT, mean ± SD, n = 4; for MNTC: Marc-145, maximum non-cytotoxic concentration (90 % cell viability)"}, "[6]": {"tested_on": "DF-1 cells", "assay": "Cytotoxicity assay (MTT)", "conditions": "for TC50: DF-1, 72 h, MTT, mean ± SD, n = 4; for MNTC: DF-1, maximum non-cytotoxic concentration (90 % cell viability)"}, "[7]": {"tested_on": "M. gallisepticum", "assay": "Antimycoplasma assay, MIC in microtiter plates", "conditions": "Mycoplasmoides gallisepticum", "procedure": "Briefly, 96-well microtiter Sensititre plates containing stabilized and freeze-dried antimicrobials were used. Three wells on each plate were set as antimicrobial free growth control. Freshly thawed mycoplasma isolates with known titers were diluted in liquid medium until the number of organisms reached 10^4 color changing units/mL. 50 μL of the diluted culture was transferred into each well of the Sensititre plates. […] The plates were sealed using an adhesive foil and incubated at 36 °C for 14 days. The growth of M. hyopneumoniae was observed daily when the color of the medium changed from red to yellow (phenol red indicator), and the initial and final MICs were recorded."}, "[8]": {"conditions": "M. gallisepticum BG44T (10^4ccu/mL)"}, "[9]": {"conditions": "M. gallisepticum PG31 (10^8 ccu/mL)"}, "[10]": {"conditions": "in words, infection inhibition, virucidal and adsorption inhibition assays"}}, "note": "Where two headings read alike, the source gives them in different places."}
{"smiles": "N#CCC(=O)N/N=C/c1cnc2ccccc2n1", "note": "[Cy1, bi-deoxy Cyadox]", "values": [{"measurement": "IC50", "setting": "[1]; Inactivation", "value": "--"}, {"measurement": "IC50", "setting": "[1]; Prevention", "value": "--"}, {"measurement": "IC50", "setting": "[1]; Treatment", "value": "--"}, {"measurement": "IC50", "setting": "[2]; Inactivation", "value": "--"}, {"measurement": "IC50", "setting": "[2]; Prevention", "value": "--"}, {"measurement": "IC50", "setting": "[2]; Treatment", "value": "--"}, {"measurement": "IC50", "setting": "[3]; Inactivation", "value": "--"}, {"measurement": "IC50", "setting": "[3]; Prevention", "value": "--"}, {"measurement": "IC50", "setting": "[3]; Treatment", "value": "--"}, {"measurement": "TC50", "setting": "[4]", "value": "23.40 ± 2.14", "unit": "µg/mL"}, {"measurement": "MNTC", "setting": "[4]", "value": 2.0, "unit": "µg/mL"}, {"measurement": "TC50", "setting": "[5]", "value": "37.83 ± 1.67", "unit": "µg/mL"}, {"measurement": "MNTC", "setting": "[5]", "value": 3.9, "unit": "µg/mL"}, {"measurement": "TC50", "setting": "[6]", "value": "32.97 ± 2.35", "unit": "µg/mL"}, {"measurement": "MNTC", "setting": "[6]", "value": 2.0, "unit": "µg/mL"}]}
{"smiles": "N#CCC(=O)N/N=C/c1cnc2ccccc2[n+]1[O-]", "note": "[Cy2, N4-deoxy cyadox]", "values": [{"measurement": "IC50", "setting": "[1]; Inactivation", "value": "--"}, {"measurement": "IC50", "setting": "[1]; Prevention", "value": "--"}, {"measurement": "IC50", "setting": "[1]; Treatment", "value": "--"}, {"measurement": "IC50", "setting": "[2]; Inactivation", "value": "--"}, {"measurement": "IC50", "setting": "[2]; Prevention", "value": "--"}, {"measurement": "IC50", "setting": "[2]; Treatment", "value": "--"}, {"measurement": "IC50", "setting": "[3]; Inactivation", "value": "--"}, {"measurement": "IC50", "setting": "[3]; Prevention", "value": "--"}, {"measurement": "IC50", "setting": "[3]; Treatment", "value": "--"}, {"measurement": "TC50", "setting": "[4]", "value": "51.73 ± 2.96", "unit": "µg/mL"}, {"measurement": "MNTC", "setting": "[4]", "value": 2.0, "unit": "µg/mL"}, {"measurement": "TC50", "setting": "[5]", "value": "96.55 ± 3.12", "unit": "µg/mL"}, {"measurement": "MNTC", "setting": "[5]", "value": 2.0, "unit": "µg/mL"}, {"measurement": "TC50", "setting": "[6]", "value": "35.48 ± 2.87", "unit": "µg/mL"}, {"measurement": "MNTC", "setting": "[6]", "value": 1.0, "unit": "µg/mL"}]}
{"smiles": "N#CCC(=O)N/N=C/c1c[n+]([O-])c2ccccc2n1", "note": "[Cy10, N1-deoxy cyadox]", "values": [{"measurement": "IC50", "setting": "[1]; Inactivation", "value": "--"}, {"measurement": "IC50", "setting": "[1]; Prevention", "value": "--"}, {"measurement": "IC50", "setting": "[1]; Treatment", "value": "--"}, {"measurement": "IC50", "setting": "[2]; Inactivation", "value": "--"}, {"measurement": "IC50", "setting": "[2]; Prevention", "value": "--"}, {"measurement": "IC50", "setting": "[2]; Treatment", "value": "--"}, {"measurement": "IC50", "setting": "[3]; Inactivation", "value": "--"}, {"measurement": "IC50", "setting": "[3]; Prevention", "value": "--"}, {"measurement": "IC50", "setting": "[3]; Treatment", "value": "--"}, {"measurement": "TC50", "setting": "[4]", "value": "25.27 ± 1.55", "unit": "µg/mL"}, {"measurement": "MNTC", "setting": "[4]", "value": 2.0, "unit": "µg/mL"}, {"measurement": "TC50", "setting": "[5]", "value": "33.62 ± 1.85", "unit": "µg/mL"}, {"measurement": "MNTC", "setting": "[5]", "value": 2.0, "unit": "µg/mL"}, {"measurement": "TC50", "setting": "[6]", "value": "49.2 ± 1.93", "unit": "µg/mL"}, {"measurement": "MNTC", "setting": "[6]", "value": 2.0, "unit": "µg/mL"}]}
{"smiles": "CN1C[C@@H]2C[C@H]1CN2c1cc2c(cc1F)c(=O)c(C(=O)O)cn2C1CC1", "note": "[Danofloxacin, danofloxacin]", "values": [{"measurement": "MIC", "setting": "[7]; [8]", "value": 0.05, "unit": "µg/mL"}, {"measurement": "MIC", "setting": "[7]; [9]", "value": 0.05, "unit": "µg/mL"}]}
{"smiles": "C[C@H]1c2cccc(O)c2C(=O)C2=C(O)[C@]3(O)C(=O)C(C(N)=O)=C(O)[C@@H](N(C)C)[C@@H]3[C@@H](O)[C@@H]21", "note": "[Doxycycline, doxycycline]", "values": [{"measurement": "MIC", "setting": "[7]; [8]", "value": 0.1, "unit": "µg/mL"}, {"measurement": "MIC", "setting": "[7]; [9]", "value": 0.2, "unit": "µg/mL"}]}
{"smiles": "CO[C@@H]1[C@@H](O[C@@H]2O[C@H](C)[C@@H](O[C@H]3C[C@@](C)(O)[C@@H](OC(=O)CC(C)C)[C@H](C)O3)[C@H](N(C)C)[C@H]2O)[C@@H](CC=O)C[C@@H](C)[C@@H](O)/C=C/C=C/C[C@@H](C)OC(=O)C[C@H]1O", "note": "[Kitasamycin, kitasamycin]", "values": [{"measurement": "MIC", "setting": "[7]; [8]", "value": 0.05, "unit": "µg/mL"}, {"measurement": "MIC", "setting": "[7]; [9]", "value": 0.05, "unit": "µg/mL"}]}
{"smiles": "CCC[C@@H]1C[C@@H](C(=O)N[C@@H]([C@H]2O[C@H](SC)[C@H](O)[C@@H](O)[C@H]2O)[C@@H](C)O)N(C)C1", "note": "[Lincomycin, lincomycin]", "values": [{"measurement": "MIC", "setting": "[7]; [8]", "value": 8, "unit": "µg/mL"}, {"measurement": "MIC", "setting": "[7]; [9]", "value": 8, "unit": "µg/mL"}]}
{"smiles": "CC(=O)c1nc2ccccc2nc1C", "note": "[M1, bi-deoxy Mequindox]", "values": [{"measurement": "IC50", "setting": "[1]; Inactivation", "value": "--"}, {"measurement": "IC50", "setting": "[1]; Prevention", "value": "--"}, {"measurement": "IC50", "setting": "[1]; Treatment", "value": "--"}, {"measurement": "IC50", "setting": "[2]; Inactivation", "value": "--"}, {"measurement": "IC50", "setting": "[2]; Prevention", "value": "--"}, {"measurement": "IC50", "setting": "[2]; Treatment", "value": "--"}, {"measurement": "IC50", "setting": "[3]; Inactivation", "value": "--"}, {"measurement": "IC50", "setting": "[3]; Prevention", "value": "--"}, {"measurement": "IC50", "setting": "[3]; Treatment", "value": "--"}, {"measurement": "TC50", "setting": "[4]", "value": "72.90 ± 2.66", "unit": "µg/mL"}, {"measurement": "MNTC", "setting": "[4]", "value": 2.0, "unit": "µg/mL"}, {"measurement": "TC50", "setting": "[5]", "value": "70.77 ± 1.57", "unit": "µg/mL"}, {"measurement": "MNTC", "setting": "[5]", "value": 1.0, "unit": "µg/mL"}, {"measurement": "TC50", "setting": "[6]", "value": "54.8 ± 1.93", "unit": "µg/mL"}, {"measurement": "MNTC", "setting": "[6]", "value": 1.0, "unit": "µg/mL"}]}
{"smiles": "NC(=O)c1ncn([C@@H]2O[C@H](CO)[C@@H](O)[C@H]2O)n1", "note": "[Ribavirin, ribavirin]", "values": [{"measurement": "IC50", "setting": "[1]; Porcine reproductive and respiratory syndrome virus, Inactivation, read-out: IC50", "value": "6.29 ± 0.38", "unit": "µg/mL"}, {"measurement": "IC50", "setting": "[1]; Porcine reproductive and respiratory syndrome virus, Prevention, read-out: IC50", "value": "9.58 ± 0.56", "unit": "µg/mL"}, {"measurement": "IC50", "setting": "[1]; Porcine reproductive and respiratory syndrome virus, Treatment, read-out: IC50", "value": "4.64 ± 0.24", "unit": "µg/mL"}, {"measurement": "effectiveness against PRRSV in vitro", "setting": "[1]; [10]", "value": "good inhibitory activity"}, {"measurement": "IC50", "setting": "[2]; Porcine parvovirus, Inactivation, read-out: IC50", "value": "0.85 ± 0.17", "unit": "µg/mL"}, {"measurement": "IC50", "setting": "[2]; Porcine parvovirus, Prevention, read-out: IC50", "value": "0.68 ± 0.15", "unit": "µg/mL"}, {"measurement": "IC50", "setting": "[2]; Porcine parvovirus, Treatment, read-out: IC50", "value": "0.49 ± 0.07", "unit": "µg/mL"}, {"measurement": "effectiveness against PPV in vitro", "setting": "[2]; [10]", "value": "good inhibitory activity"}, {"measurement": "IC50", "setting": "[3]; Infectious bursal disease virus, Inactivation, read-out: IC50", "value": "1.18 ± 0.21", "unit": "µg/mL"}, {"measurement": "IC50", "setting": "[3]; Infectious bursal disease virus, Prevention, read-out: IC50", "value": "0.87 ± 0.18", "unit": "µg/mL"}, {"measurement": "IC50", "setting": "[3]; Infectious bursal disease virus, Treatment, read-out: IC50", "value": "0.58 ± 0.12", "unit": "µg/mL"}, {"measurement": "effectiveness against IBDV in vitro", "setting": "[3]; [10]", "value": "good inhibitory activity"}, {"measurement": "TC50", "setting": "[5]", "value": "75.49 ± 2.54", "unit": "µg/mL"}, {"measurement": "MNTC", "setting": "[5]", "value": 8.6, "unit": "µg/mL"}, {"measurement": "TC50", "setting": "[6]", "value": "67.42 ± 2.58", "unit": "µg/mL"}, {"measurement": "MNTC", "setting": "[6]", "value": 4.0, "unit": "µg/mL"}]}
{"smiles": "CN(C)[C@@H]1C(O)=C(C(N)=O)C(=O)[C@@]2(O)C(O)=C3C(=O)c4c(O)cccc4[C@@](C)(O)[C@H]3C[C@@H]12", "note": "[Tetracycline, tetracycline]", "values": [{"measurement": "MIC", "setting": "[7]; [8]", "value": 0.4, "unit": "µg/mL"}, {"measurement": "MIC", "setting": "[7]; [9]", "value": 0.8, "unit": "µg/mL"}]}
